One series deals with HL-60 cells. As to the kind of experiment: MTT in vitro cytotoxicity assay, HL-60. It counts as cell-based. Conditions: 48 h incubation, mean ± SEM, read-out: IC50 HL-60. How it is done: (§1) The promyelocytic leukemia HL-60 and breast cancer adenocarcinoma MCF-7 cell lines were purchased from the European Collection of Cell Cultures (ECACC). Leukemia cells were cultured in RPMI 1640 plus GlutaMax I medium (Gibco/Life Technologies, Carlsbad, CA, USA). MCF-7 cells were maintained in Minimum Essential Medium Eagle (Sigma Aldrich, St. Louis, MO, USA) and supplemented with 2 mM glutamine and men non-essential amino acid solution (Sigma Aldrich, St. Louis, MO, USA). Both media were supplemented with 10% heat-inactivated fetal bovine serum (Biological Industries, Beit-Haemek, Israel) and antibiotics (100 U/mL penicillin and 100 μg/mL streptomycin) (Sigma-Aldrich, St. Louis, MO, USA). Human umbilical vein endothelial cells (HUVECs) were purchased from the American Type Culture Collection (ATCC). Cells were cultured using EGM-2 Endothelial Medium BulletKit purchased from Lonza (Lonza, Walkersville, MD, USA). Cells were maintained at 37 °C in 5% CO2 atmosphere and grown until 80% confluent.
(§2) The tested compounds were dissolved in sterile dimethyl sulfoxide (DMSO) and further diluted with culture medium. The final concentration of DMSO in cell cultures was less than 0.1% v/v. Controls without and with 0.1% DMSO were performed in each experiment. At the used concentration, DMSO had no effect on the observed parameters.
(§3) The MTT (3-(4,5-dimethylthiazol-2-yl)-2,5-diphenyltetrazolium bromide) assay, which measures the activity of cellular dehydrogenases, was performed according to the Mosmann method. Exponentially growing cells were seeded into 24-well plates at a density of 8 × 10^4 cells/mL and left to grow for 24 h. After 24 h or 48 h of incubation with various concentrations of the tested compounds (dissolved in DMSO and diluted with complete culture medium), cells were incubated with 0.1 mL of MTT solution (5 mg/mL in phosphate buffered saline) for 1.5 h. The metabolically active cells reduced MTT to blue formazan crystals. The plates were centrifuged, and the supernatant was discarded. DMSO (1 mL) was added to each well to dissolve the crystals, whose absorbance was measured at 560 nm using FlexStation 3 Multi-Mode Microplate Reader (Molecular Devices, LLC, San Jose, CA, USA). The untreated cells were used as control. The IC50 values were calculated from the concentration–response curves. The data were expressed as mean ± SEM of three independent experiments.

For a further series, the system named is HUVEC cells. In words: MTT in vitro cytotoxicity assay, HUVEC (normal cells). It counts as cell-based, human. The following applies: 48 h incubation, mean ± SEM. How it is done: as §1, §2, §3
In another series the test system is MCF-7 cells. In words: MTT in vitro cytotoxicity assay, MCF-7. It counts as cell-based. Conditions: mean ± SEM. How it is done:
as §1, §2, §3

The mark [1] stands for this setting: Homo sapiens, MCF7, 48 h incubation.

Read-outs that look alike come from different tables or passages of the source.

One may read the IC50 as the point on the concentration scale where inhibition reaches its midpoint. On to `N.N.O=C([O-])C1(C(=O)[O-])CCC1.[Pt+2]` [Carboplatin, reference compound], for which the half-maximal inhibitory concentration (IC50) in the series with HL-60 cells is 3800 ± 450 nM; in the series on HUVEC cells, 5350 ± 50 nM; in the series on MCF-7 cells (48 h incubation), 2900 ± 100 nM.

By melting point is commonly meant the temperature, or range, at which the solid turns liquid. Regarding `C=C1C(=O)c2ccccc2N(S(=O)(=O)c2ccccc2)C1C(C)C` (centres unmarked) [Compound 5b, 3-Methylidene-1-(phenylsulfonyl)-2-(propan-2-yl)-2,3-dihydroquinolin-4(1H)-one], the melting point was 86 °C. For the same compound, the 50% inhibitory concentration (IC50) in the series on HL-60 cells is 290 ± 20 nM. Further, in the series on HL-60 cells (Homo sapiens, HL-60, 48 h), the IC50 was less than 300 nM. The IC50 in the series with HUVEC cells (Homo sapiens, HUVEC) was determined as 780 ± 210 nM. In the series on MCF-7 cells (setting [1]), this compound came in with a half-inhibitory concentration (IC50) of 830 ± 20 nM.

For the compound `C=C1C(=O)c2ccccc2N(S(=O)(=O)c2ccccc2)C1c1ccccc1` (centres unmarked) [Compound 5c, 3-Methylidene-2-phenyl-1-(phenylsulfonyl)-2,3-dihydroquinolin-4(1H)-one], the melting point is 150 °C. Besides, the IC50 in the series on HL-60 cells (Homo sapiens, HL-60, 48 h) came out at 1360 ± 130 nM. Further, in the series with MCF-7 cells (setting [1]), the IC50 was found to be 2250 ± 200 nM.

Take `C=C1C(=O)c2ccccc2N(S(=O)(=O)c2ccccc2)C1c1ccc(OC)cc1` (centres unmarked) [Compound 5d, 2-(4-Methoxyphenyl)-3-methylidene-1-(phenylsulfonyl)-2,3-dihydroquinolin-4(1H)-one]: the melting point came to 152 °C. In the series on HL-60 cells (Homo sapiens, HL-60, 48 h), the IC50 came to 1120 ± 370 nM. The IC50 in the series on MCF-7 cells (setting [1]) was 1210 ± 240 nM.

Consider `C=C1C(=O)c2ccccc2N(S(=O)(=O)c2ccc(Cl)cc2)C1CC` (centres unmarked) [Compound 5e, 1-((4-Chlorophenyl)sulfonyl)-2-ethyl-3-methylidene-2,3-dihydroquinolin-4(1H)-one], for which the melting point stood at 118 °C. In addition, the half-inhibitory concentration (IC50) in the series on HL-60 cells (Homo sapiens, HL-60, 48 h) was found to be 370 ± 50 nM. This compound also returned an IC50 in the series with HUVEC cells (Homo sapiens, HUVEC) of 750 nM. Besides, the IC50 with MCF-7 cells (setting [1]) was determined as 1610 ± 70 nM.

`C=C1C(=O)c2ccccc2N(S(=O)(=O)c2ccc(Cl)cc2)C1C(C)C` (centres unmarked) [Compound 5f, 1-((4-Chlorophenyl)sulfonyl)-3-methylidene-2-(propan-2-yl)-2,3-dihydroquinolin-4(1H)-one]: the melting point came out at 126 °C. In addition, in the series on HL-60 cells, the IC50 was 230 ± 10 nM. In addition, the IC50 with HL-60 cells (Homo sapiens, HL-60, 48 h) was less than 300 nM. The same compound showed an IC50 in the series with HUVEC cells (Homo sapiens, HUVEC) of 990 ± 70 nM. Further, in the series with MCF-7 cells (setting [1]), inhibition was half-maximal at 860 ± 20 nM (IC50).

Take `C=C1C(=O)c2ccccc2N(S(=O)(=O)c2ccc(Cl)cc2)C1c1ccccc1` (centres unmarked) [Compound 5g]: the melting point is 178 °C. Further, the IC50 in the series with HL-60 cells (Homo sapiens, HL-60, 48 h) is 780 ± 70 nM. This compound yielded an IC50 in the series on MCF-7 cells (setting [1]) of 1890 ± 30 nM.

Consider `C=C1C(=O)c2ccccc2N(S(=O)(=O)c2ccc(Cl)cc2)C1c1ccc(OC)cc1` (centres unmarked) [Compound 5h, 1-((4-Chlorophenyl)sulfonyl)-2-(4-methoxyphenyl)-3-methylidene-2,3-dihydroquinolin-4(1H)-one], for which the melting point was 140 °C. The IC50 with HL-60 cells (Homo sapiens, HL-60, 48 h) was determined as 920 ± 10 nM. Besides, the half-inhibitory concentration (IC50) in the series with MCF-7 cells (setting [1]) amounted to 2100 ± 160 nM.

Regarding `C=C1C(=O)c2cc(OC)c(OC)cc2N(S(=O)(=O)c2ccc(C)cc2)C1CC` (centres unmarked) [Compound 5i, 2-Ethyl-6,7-dimethoxy-3-methylidene-1-tosyl-2,3-dihydroquinolin-4(1H)-one], the melting point stood at 168 °C. Further, the concentration for half-maximal inhibition (IC50) in the series on HL-60 cells (Homo sapiens, HL-60, 48 h) was 370 ± 20 nM. Moreover, the midpoint of inhibition in the series with HUVEC cells (Homo sapiens, HUVEC), the IC50, lay at 420 ± 80 nM. The compound further registered an IC50 in the series on MCF-7 cells (setting [1]) of 1010 ± 50 nM.

In turn, `C=C1C(=O)c2cc(OC)c(OC)cc2N(S(=O)(=O)c2ccc(C)cc2)C1C(C)C` (centres unmarked) [Compound 5j, 6,7-Dimethoxy-3-methylidene-2-(propan-2-yl)-1-tosyl-2,3-dihydroquinolin-4(1H)-one] came in with a melting point of 150 °C. The 50% inhibitory concentration (IC50) with HL-60 cells (Homo sapiens, HL-60, 48 h) came to 430 ± 20 nM. This compound displayed a 50% inhibitory concentration (IC50) in the series with HUVEC cells (Homo sapiens, HUVEC) of 990 ± 70 nM. The compound further displayed an IC50 with MCF-7 cells (setting [1]) of 1440 ± 70 nM.

`C=C1C(=O)c2cc(OC)c(OC)cc2N(S(=O)(=O)c2ccc(C)cc2)C1c1ccccc1` (centres unmarked) [Compound 5k, 6,7-Dimethoxy-3-methylidene-2-phenyl-1-tosyl-2,3-dihydroquinolin-4(1H)-one] registered a melting point of 196 °C. Further, the concentration for half-maximal inhibition (IC50) in the series on HL-60 cells (Homo sapiens, HL-60, 48 h) is 580 ± 20 nM. The half-maximal inhibitory concentration (IC50) in the series on MCF-7 cells (setting [1]) was 1460 ± 90 nM.

`C=C1C(=O)c2cc(OC)c(OC)cc2N(S(=O)(=O)c2ccc(C)cc2)C1c1ccc(OC)cc1` (centres unmarked) [Compound 5l, 6,7-Dimethoxy-2-(4-methoxyphenyl)-3-methylidene-1-tosyl-2,3-dihydroquinolin-4(1H)-one] yielded a melting point of 196 °C. Also, the IC50 in the series with HL-60 cells (Homo sapiens, HL-60, 48 h) is 1480 ± 60 nM. In addition, the IC50 in the series with MCF-7 cells (setting [1]) worked out at 1150 ± 40 nM.

In turn, `C=C1C(=O)c2cc(Cl)ccc2N(S(=O)(=O)c2ccc(C)cc2)C1CC` (centres unmarked) [Compound 5m, 6-Chloro-2-ethyl-3-methylidene-1-tosyl-2,3-dihydroquinolin-4(1H)-one] returned a melting point of 126 °C. In addition, the IC50 with HL-60 cells (Homo sapiens, HL-60, 48 h) worked out at 1750 ± 30 nM. The same compound yielded a half-inhibitory concentration (IC50) with MCF-7 cells (setting [1]) of 3480 ± 420 nM.

Consider `C=C1C(=O)c2cc(Cl)ccc2N(S(=O)(=O)c2ccc(C)cc2)C1C(C)C` (centres unmarked) [Compound 5n, 6-Chloro-3-methylidene-2-(propan-2-yl)-1-tosyl-2,3-dihydroquinolin-4(1H)-one], for which the melting point came to 130 °C. Further, the IC50 with HL-60 cells (Homo sapiens, HL-60, 48 h) came out at 670 ± 10 nM. The compound also had an IC50 in the series on HUVEC cells (Homo sapiens, HUVEC) of 680 ± 30 nM. The compound further displayed a concentration for half-maximal inhibition (IC50) in the series on MCF-7 cells (setting [1]) of 1650 ± 50 nM.

In the case of `C=C1C(=O)c2cc(Cl)ccc2N(S(=O)(=O)c2ccc(C)cc2)C1c1ccccc1` (centres unmarked) [Compound 5o, 6-Chloro-3-methylidene-2-phenyl-1-tosyl-2,3-dihydroquinolin-4(1H)-one], the melting point is 162 °C. The concentration for half-maximal inhibition (IC50) in the series on HL-60 cells (Homo sapiens, HL-60, 48 h) was 2040 ± 50 nM. 3670 ± 410 nM corresponded to half-maximal inhibition in the series on MCF-7 cells (setting [1]) (IC50).

With `C=C1C(=O)c2cc(Cl)ccc2N(S(=O)(=O)c2ccc(C)cc2)C1c1ccc(OC)cc1` (centres unmarked) [Compound 5p, 6-Chloro-2-(4-methoxyphenyl)-3-methylidene-1-tosyl-2,3-dihydroquinolin-4(1H)-one], the melting point stood at 150 °C. In addition, in the series with HL-60 cells (Homo sapiens, HL-60, 48 h), the IC50 came out at 2070 ± 20 nM. For the same compound, 3600 ± 190 nM corresponded to half-maximal inhibition in the series on MCF-7 cells (setting [1]) (IC50).

In turn, `C=C1C(=O)c2cc(Br)ccc2N(S(=O)(=O)c2ccc(C)cc2)C1CC` (centres unmarked) [Compound 5q, 6. -Bromo-2-ethyl-3-methylidene-1-tosyl-2,3-dihydroquinolin-4(1H)-one] gave a melting point of 132 °C. The IC50 in the series on HL-60 cells (Homo sapiens, HL-60, 48 h) came to 610 ± 40 nM. In the series on HUVEC cells (Homo sapiens, HUVEC), this compound showed an IC50 of 1000 ± 220 nM. Besides, the concentration for half-maximal inhibition (IC50) in the series with MCF-7 cells (setting [1]) came out at 1830 ± 150 nM.

On to `C=C1C(=O)c2cc(Br)ccc2N(S(=O)(=O)c2ccc(C)cc2)C1C(C)C` (centres unmarked) [Compound 5r, 6-Bromo-3-methylidene-2-(propan-2-yl)-1-tosyl-2,3-dihydroquinolin-4(1H)-one], for which the melting point amounted to 118 °C. The IC50 in the series with HL-60 cells was found to be 190 ± 30 nM. Further, the concentration for half-maximal inhibition (IC50) in the series with HL-60 cells (Homo sapiens, HL-60, 48 h) is less than 300 nM. This compound also returned a half-maximal inhibitory concentration (IC50) in the series with HUVEC cells (Homo sapiens, HUVEC) of 470 ± 30 nM. The same compound gave an IC50 in the series on MCF-7 cells (setting [1]) of 830 ± 20 nM.

The compound `C=C1C(=O)c2cc(Br)ccc2N(S(=O)(=O)c2ccc(C)cc2)C1c1ccccc1` (centres unmarked) [Compound 5s, 6-Bromo-3-methylidene-2-phenyl-1-tosyl-2,3-dihydroquinolin-4(1H)-one] registered a melting point of 162 °C. For the same compound, in the series on HL-60 cells (Homo sapiens, HL-60, 48 h), the IC50 turned out to be 620 ± 10 nM. Also, the IC50 with MCF-7 cells (setting [1]) was 2670 ± 50 nM.

In turn, `C=C1C(=O)c2cc(Br)ccc2N(S(=O)(=O)c2ccc(C)cc2)C1c1ccc(OC)cc1` (centres unmarked) [Compound 5t, 6-Bromo-2-(4-methoxyphenyl)-3-methylidene-1-tosyl-2,3-dihydroquinolin-4(1H)-one] registered a melting point of 168 °C. Also, the half-inhibitory concentration (IC50) in the series with HL-60 cells (Homo sapiens, HL-60, 48 h) was 740 ± 60 nM. In addition, in the series with MCF-7 cells (setting [1]), inhibition was half-maximal at 2810 ± 50 nM (IC50).

These data come from PMC9181899, “Synthesis and Anticancer Properties of New 3-Methylidene-1-sulfonyl-2,3-dihydroquinolin-4(1H)-ones” (Molecules, 2022).
